The subject of assay [1] is Escherichia coli strain ATCC25922. Briefly: Antimicrobial activity, MIC by broth microdilution. To be noted: ATCC25922, 18 h, read-out: MIC Escherichia coli ATCC25922. Format: cell-based. In outline: (§1)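 CLSI-based broth microdilution in cation-adjusted Mueller-Hinton broth, inoculum about 5×10^5 CFU/mL from overnight heart infusion agar culture. Incubation 35° C. about 18 h; MIC is the lowest concentration with no visible growth.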
In general terms: Broth dilution looks for growth in wells or tubes with falling amounts of substance.

Assay [2] concerns Pseudomonas aeruginosa strain ATCC27853. Kind of assay: Antimicrobial activity, MIC by broth microdilution. It counts as cell-based. To be noted: ATCC27853, 18 h, read-out: MIC Pseudomonas aeruginosa ATCC27853. In outline: as §1
For assay [3], the system named is Klebsiella pneumoniae strain ATCC13883. Briefly: Antimicrobial activity, MIC by broth microdilution. Format: cell-based. The note with it: read-out: MIC Klebsiella pneumoniae ATCC13883. The procedure, abridged: as §1
Assay [4] concerns the target T1, Escherichia coli LpxC enzyme (Escherichia coli, UniProt P0A725).
T1 construct: made in house; host or cells: Escherichia coli
T1 sequence (P0A725 1-305): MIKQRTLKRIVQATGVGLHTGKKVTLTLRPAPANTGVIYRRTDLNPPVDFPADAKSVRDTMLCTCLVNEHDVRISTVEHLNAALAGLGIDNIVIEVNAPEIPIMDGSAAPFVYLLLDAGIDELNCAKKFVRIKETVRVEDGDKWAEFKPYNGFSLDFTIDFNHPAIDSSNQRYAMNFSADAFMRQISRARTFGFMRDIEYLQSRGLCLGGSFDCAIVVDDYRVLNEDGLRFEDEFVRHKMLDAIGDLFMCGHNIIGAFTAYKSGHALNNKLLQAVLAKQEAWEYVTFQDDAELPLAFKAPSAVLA
Kind of assay: Inhibitory activity on Escherichia coli LpxC enzyme (fluorescamine method). It counts as biochemical. The procedure, abridged:
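LpxC reacted with UDP-3-O-(R-3-hydroxymyristoyl)-N-acetylglucosamine; product amine quantified after fluorescamine stop and pH 8.0 phosphate buffer addition, at 390 nm/495 nm. Inhibition curve built from a range of test compound concentrations.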

Where [5] appears, read: cation-adjusted Mueller-Hinton broth, about 5×10^5 CFU/mL, 35° C., about 18 hours.
Setting [6] is: ATCC13883, cation-adjusted Mueller-Hinton broth, about 5×10^5 CFU/mL, 35° C., about 18 hours.
Where [7] appears, read: fluorescamine detection, 3.1 nmol/L enzyme, 20 μmol/L substrate, pH 6.5, 120 min, read-out: IC50 (inhibitory activity on Escherichia coli LpxC enzyme, Fluoresamine method).

SMILES strings stand for the structures. Values after ≈ are worked out from the molar mass of the structure shown. Where two headings read alike, the source gives them in different places.

In general, MIC refers to the smallest concentration in the dilution series that meets the test's criterion for growth inhibition. As a reminder, the IC50 is the concentration needed to halve the response being measured. As for `C[C@H](O)c1nccn1Cc1cc(-c2ccc(C#C[C@@H]3[C@H]4CN(CCCCCC(=O)O)C[C@@H]34)cc2)on1` [Compound 94, 6-[(1R,5S,6s)-6-({4-[3-({2-[(1S)-1-hydroxyethyl]-1H-imidazol-1-yl}methyl)-1,2-oxazol-5-yl]phenyl}ethynyl)-3-azabicyclo[3.1.0]hexan-3-yl]hexanoic acid], the minimal inhibitory concentration (MIC) was 2 µg/mL (≈ 4.09 µM) in assay [1] (setting [5]), 16 µg/mL (≈ 32.7 µM) in assay [2] (setting [5]) and 4 µg/mL (≈ 8.19 µM) in assay [3] (setting [6]). In addition, the half-inhibitory concentration (IC50) in assay [4] (setting [7]) was found to be 412 nM.
The matching figures for `COCCN1C[C@@H]2[C@@H](C#Cc3ccc(-c4cc(Cn5ccnc5[C@H](C)O)on4)cc3)[C@@H]2C1` [Compound 84, (1S)-1-(1-{[3-(4-{[(1R,5S,6s)-3-(2-methoxyethyl)-3-azabicyclo[3.1.0]hexan-6-yl]ethynyl}phenyl)-1,2-oxazol-5-yl]methyl}-1H-imidazol-2-yl)ethan-1-ol]: 0.5 µg/mL (≈ 1.16 µM), 16 µg/mL (≈ 37 µM), 0.5 µg/mL (≈ 1.16 µM) and 102 nM.
For `C[C@H](O)c1nccn1Cc1cc(-c2ccc(C#C[C@@H]3[C@H]4CNC[C@@H]34)cc2)no1` [Compound 83, (1S)-1-(1-{[3-(4-{[(1R,5S,6s)-3-azabicyclo[3.1.0]hexan-6-yl]ethynyl}phenyl)-1,2-oxazol-5-yl]methyl}-1H-imidazol-2-yl)ethan-1-ol] the same measures were 8 µg/mL (≈ 21.4 µM), 8 µg/mL (≈ 21.4 µM), 8 µg/mL (≈ 21.4 µM) and 136 nM.
For `CCN1C[C@@H]2[C@@H](C#Cc3ccc(-c4cc(Cn5ccnc5[C@H](C)O)no4)cc3)[C@@H]2C1` [Compound 99, (1S)-1-(1-{[5-(4-{[(1R,5S,6s)-3-ethyl-3-azabicyclo[3.1.0]hexan-6-yl]ethynyl}phenyl)-1,2-oxazol-3-yl]methyl}-1H-imidazol-2-yl)ethan-1-ol] the same measures were 2 µg/mL (≈ 4.97 µM), 16 µg/mL (≈ 39.8 µM), 2 µg/mL (≈ 4.97 µM) and 91.8 nM.
Consider `C[C@H](O)c1nccn1Cc1cc(-c2ccc(C#CC3(O)CC3)cc2)on1` [Compound 52, 1-({4-[3-({2-[(1S)-1-hydroxyethyl]-1H-imidazol-1-yl}methyl)-1,2-oxazol-5-yl]phenyl}ethynyl)cyclopropan-1-ol], for which the minimal inhibitory concentration (MIC) turned out to be 2 µg/mL (≈ 5.72 µM) in assay [1] (setting [5]), 128 µg/mL (≈ 366 µM) in assay [2] (setting [5]) and 4 µg/mL (≈ 11.4 µM) in assay [3] (setting [6]). Further, the IC50 in assay [4] (setting [7]) is 83.5 nM.
With `C[C@H](O)c1nccn1Cc1cc(-c2ccc(C#C[C@@H]3[C@H]4CN(C(N)=O)C[C@@H]34)cc2)on1` [Compound 71, (1R,5S,6s)-6-({4-[3-({2-[(1S)-1-Hydroxyethyl]-1H-imidazol-1-yl}methyl)-1,2-oxazol-5-yl]phenyl}ethynyl)-3-azabicyclo[3.1.0]hexane-3-carboxamide], the minimum inhibitory concentration (MIC) is 1 µg/mL (≈ 2.4 µM) in assay [1] (setting [5]), greater than 16 µg/mL in assay [2] (setting [5]) and 2 µg/mL (≈ 4.79 µM) in assay [3] (setting [6]). In addition, in assay [4] (setting [7]), the IC50 worked out at 29 nM.
For `COCC(O)CN1C[C@@H]2[C@@H](C#Cc3ccc(-c4cc(Cn5ccnc5[C@H](C)O)on4)cc3)[C@@H]2C1` (stereo partly drawn) [Compound 85, 1-[(1R,5S,6s)-6-({4-[5-({2-[(1S)-1-hydroxyethyl]-1H-imidazol-1-yl}methyl)-1,2-oxazol-3-yl]phenyl}ethynyl)-3-azabicyclo[3.1.0]hexan-3-yl]-3-methoxypropan-2-ol] the same measures were 0.5 µg/mL (≈ 1.08 µM), 8 µg/mL (≈ 17.3 µM), 0.5 µg/mL (≈ 1.08 µM) and 96.8 nM.
The matching figures for `CC(O)CN1CCC(C#Cc2ccc(-c3cc(Cn4ccnc4[C@H](C)O)no3)cc2)CC1` (stereo partly drawn) [Compound 128, 1-[4-((4-[3-({2-[(1S)-1-hydroxyethyl]-1H-imidazol-1-yl]methyl)-1,2-oxazol-5-yl]phenyl}ethynyl)piperidin-1-yl]propan-2-ol]: 8 µg/mL (≈ 18.4 µM), greater than 128 µg/mL, 16 µg/mL (≈ 36.8 µM) and 331 nM.
Take `C[C@H](O)c1nccn1Cc1cc(-c2ccc(C#C[C@@H]3[C@H]4CN(S(N)(=O)=O)C[C@@H]34)cc2)on1.Cl` [Compound 81, (1R,5S,6s)-6-((4-[3-({2-[(1S)-1-Hydroxyethyl]-1H-imidazol-1-yl}methyl)-1,2-oxazol-5-yl]phenyl}ethynyl)-3-azabicyclo[3.1.0]hexane-3-sulfonamide hydrochloride]: the figures for the minimum inhibitory concentration (MIC) in assay [1] (setting [5]), in assay [2] (setting [5]) and in assay [3] (setting [6]) were 0.5 µg/mL, greater than 4 µg/mL and 1 µg/mL, respectively. The IC50 in assay [4] (setting [7]) was determined as 69.6 nM.
For `C[C@H](O)c1nccn1Cc1cc(-c2ccc(C#CC3CCOCC3)cc2)on1` [Compound 31, (1S)-1-{1-[(5-{4-[(oxan-4-yl)ethynyl]phenyl}-1,2-oxazol-3-yl)methyl]-1H-imidazol-2-yl) ethan-1-ol] the same measures were 1 µg/mL (≈ 2.65 µM), greater than 128 µg/mL, 2 µg/mL (≈ 5.3 µM) and 32.8 nM.
For `C[C@H](O)c1nccn1Cc1cc(-c2ccc(C#CC3(N(C)C)CC3)cc2)on1` [Compound 50, (1S)-1-(1-{[5-(4-{[1-(dimethylamino)cyclopropyl]ethynyl}phenyl)-1,2-oxazol-3-yl]methyl}-1H-imidazol-2-yl)ethan-1-ol] the same measures were 2 µg/mL (≈ 5.31 µM), greater than 128 µg/mL, 4 µg/mL (≈ 10.6 µM) and 205 nM.
`C[C@H](O)c1nccn1Cc1cc(-c2ccc(C#CC3CC(NC4COC4)C3)cc2)on1` (stereo partly drawn) [Compound 112, (1S)-1-[l-({5-[4-({3-[(oxetan-3-yl)amino]cyclobutyl}ethynyl)phenyl]-1,2-oxazol-3-yl}methyl)-1H-imidazol-2-yl]ethan-1-ol]: the MIC in assay [1] (setting [5]) was found to be 0.5 µg/mL (≈ 1.19 µM); in assay [2] (setting [5]), 32 µg/mL (≈ 76.5 µM); in assay [3] (setting [6]), 1 µg/mL (≈ 2.39 µM). Besides, in assay [4], the IC50 came out at 79.7 nM.
In the case of `CC(=O)N[C@H]1C[C@H](C#Cc2ccc(-c3cc(Cn4ccnc4[C@H](C)O)no3)cc2)C1` [Compound 87, N-[trans-3-({4-[3-({2-[(1S)-1-hydroxyethyl]-1H-imidazol-1-yl}methyl)-1,2-oxazol-5-yl]phenyl}ethynyl)cyclobutyl]acetamide], the minimal inhibitory concentration (MIC) in assay [1] (setting [5]) was 0.5 µg/mL (≈ 1.24 µM); in assay [2] (setting [5]), greater than 128 µg/mL; in assay [3] (setting [6]), 1 µg/mL (≈ 2.47 µM). In assay [4] (setting [7]), the concentration for half-maximal inhibition (IC50) is 25.2 nM.
On to `COC(=O)N1C[C@@H]2[C@@H](C#Cc3ccc(-c4cc(Cn5ccnc5[C@H](C)O)no4)cc3)[C@@H]2C1` [Compound 78, Methyl (1R,5S,6s)-6-({4-[3-({2-[(1S)-1-hydroxyethyl]-1H-imidazol-1-yl}methyl)-1,2-oxazol-5-yl]phenyl}ethynyl)-3-azabicyclo[3.1.0]hexane-3-carboxylate], for which the minimum inhibitory concentration (MIC) in assay [1] was determined as 0.5 µg/mL (≈ 1.16 µM); in assay [2] it was 32 µg/mL (≈ 74 µM); in assay [3] (ATCC13883, 18 h), 0.5 µg/mL (≈ 1.16 µM). In assay [4], this compound displayed an IC50 of 13.8 nM.
Consider `C[C@H](O)c1nccn1[C@H](CN)c1cc(-c2ccc(C#CC3CC3)cc2)no1` [Compound 82, (1S)-1-{1-[(1R)-2-Amino-1-{3-[4-(cyclopropylethynyl)phenyl]-1,2-oxazol-5-yl}ethyl]-1H-imidazol-2-yl}ethan-1-ol], for which the MIC in assay [1] (setting [5]) amounted to 0.12 µg/mL (≈ 0.331 µM); in assay [2] (setting [5]), 16 µg/mL (≈ 44.1 µM); in assay [3] (setting [6]), 0.25 µg/mL (≈ 0.69 µM). Moreover, the half-inhibitory concentration (IC50) in assay [4] (setting [7]) was 82 nM.
For `COCC1CC1C#Cc1ccc(-c2cc([C@@H](CN)n3ccnc3[C@H](C)O)no2)cc1` (relative stereo) [Compound 74, (1S)-1-(1-{(1R)-2-amino-1-[5-(4-{[trans-2-(methoxymethyl)cyclopropyl]ethynyl}phenyl)-1,2-oxazol-3-yl]ethyl}-1H-imidazol-2-yl)ethan-1-ol] the same measures were 0.12 µg/mL (≈ 0.295 µM), 16 µg/mL (≈ 39.4 µM), 0.25 µg/mL (≈ 0.615 µM) and 39.6 nM.
For `CC(=O)N1C[C@@H]2[C@@H](C#Cc3ccc(-c4cc(Cn5ccnc5[C@H](C)O)no4)cc3)[C@@H]2C1` [Compound 37, 1-[(1R,5S,6s)-6-({4-[3-({2-[(1S)-1-Hydroxyethyl]-1H-imidazol-1-yl}methyl)-1,2-oxazol-5-yl]phenyl}ethynyl)-3-azabicyclo[3.1.0]hexan-3-yl]ethan-1-one] the same measures were 1 µg/mL (≈ 2.4 µM), 32 µg/mL (≈ 76.8 µM), 2 µg/mL (≈ 4.8 µM) and 58.2 nM.
The matching figures for `C[C@H](O)c1nccn1Cc1cc(-c2ccc(C#C[C@@H]3[C@H]4CN(C=O)C[C@@H]34)cc2)on1` [Compound 73, (1R,5S,6s)-6-({4-[3-({2-[(1S)-1-Hydroxyethyl]-1H-imidazol-1-yl}methyl)-1,2-oxazol-5-yl]phenyl}ethynyl)-3-azabicyclo[3.1.0]hexane-3-carbaldehyde]: 1 µg/mL (≈ 2.48 µM), 64 µg/mL (≈ 159 µM), 2 µg/mL (≈ 4.97 µM) and 38.5 nM.

These data come from patent publication US20220002279A1, “NOVEL IMIDAZOLE DERIVATIVE” (priority 2018, published 2022).
